# Source: patent US20050042209A1, “MUC1 extracellular domain and cancer treatment compositions and methods derived therefrom” (priority 2000, published 2005)
# d = 2'-deoxy (DNA); r = 2'-OH (RNA)
# Tests used:
# MUC1 [1] = experiment: Western blot of MUC1 after siRNA transfection; type: cell-based, human; conditions: siRNA 0.2 micromolar
# Text: Cell Culture: Human MCF-7 breast cancer cells were maintained in DMEM supplemented with 10% heat inactivated fetal bovine serum (FBS) and 1% penicillin-streptomycin mixture. Human A549 non-small cell lung cancer cells were maintained in RPMI1640 medium supplemented with 10% FBS and 1% penicillin-streptomycin mixture.
# (§1) siRNAs: Five different double stranded anti-MUC1 siRNAs were designed: one against the target sequence SEQ ID NO: 63, i.e., […], with sense and antisense strands as shown in SEQ ID NO: 64 and SEQ ID NO: 65 respectively (hereinafter siRNA #1); one against the target sequence SEQ ID NO: 42, i.e., […], with sense and antisense strands as shown in SEQ ID NO: 43 and SEQ ID NO: 44 respectively (hereinafter siRNA #2); one against the target sequence SEQ ID NO: 21, i.e., […], with sense and antisense strands as shown in SEQ ID NO: 22 and SEQ ID NO: 23 respectively (hereinafter siRNA #3); one against the target sequence SEQ ID NO: 66, i.e., […], with sense and antisense strands as shown by SEQ ID NO: 67 and SEQ ID NO: 68 respectively (hereinafter siRNA #4); and one against target sequence SEQ ID NO: 69, i.e., […], with sense and antisense strands as shown by SEQ ID NO: 70 and SEQ ID NO: 71 respectively (hereinafter siRNA #5). A control siRNA was designed against the scrambled target SEQ ID NO: 72 with sense and antisense strands as shown by SEQ ID NO: 73 and SEQ ID NO: 74 respectively. Each RNA sense oligonucleotide (50 μM) was combined with equal volume of antisense oligonucleotide (50 μM) in an annealing buffer (20 mM KCl, 6 mM HEPES-KOH, pH 7.5, 0.2 mM MgCl2). The solution was incubated for 1 min at 90° C. to denature secondary structure, and placed at 37° C. for 1 hour to anneal the complementary strands. The subsequent double stranded RNAs were used as the anti-MUC1 siRNA.
# Transfection: Cells (1-3×10^5 cells/well) were plated in 6-well plates in growth medium without antibiotics, and incubated overnight. After washing cells once with Opti-MEM I (Invitrogen), 800 μL of fresh Opti-MEM I and 200 μL of the Reagent (Invitrogen) were added to the cultured cells. Four hours later, 300 μL of FBS was added to the cultured cells.
# Western Blot Analysis: Cell were passed a day before transfection. MUC1 siRNA (0.2 micromolar) was added with oligofectamine to cells in 0% FBS. Four hours later serum was added to a final concentration of 10%. After various time intervals (48 h, 72 h and 96 h), cells were washed and total cell lysates were prepared. Proteins were separated from cell lysates by SDS-PAGE, transferred to nitrocellulose and analyzed by immunoblotting with anti-DF3 antibodies.
# MUC1 RNA = experiment: RT-PCR of MUC1 RNA after siRNA transfection; type: cell-based, human; conditions: FIG. 5
# Text: as §1
# RT-PCR: Total RNA was extracted and purified from cultured cells using RNAzol B according the manufacturer's instructions. The RNA was quantified by determining absorbance at 260 nm. One μg of total RNA from each sample was reverse transcribed into cDNA using Thermoscript reverse transcriptase (Invitrogen) in a volume of 20 μL. The cDNA product was amplified by PCR using Platinum Taq DNA polymerase (Invitrogen) and specific primers for MUC1 and beta-actin as an internal control. The sequences of primers used were as follows; • MUC1 (forward, 5′-[…]-3′; reverse, 5′-[…]-3′) and beta-actin (forward, 5′-[…]-3′; reverse, 5′-[…]-3′).
# The reaction was performed using the following program: 94° C. for 2 min, 29 cycles (25 cycles for beta-actin) at 94° C. for 2 min, 48° C. for 1 min, 72° C. for 30s and then additional extension step of 72° C. for 10 min. The PCR products were separated on a 2% agarose gel, stained with ethidium bromide and photographed under UV light.
# A549 cells [2] = experiment: Proliferation of A549 cells; type: cell-based, human; conditions: transfection of siRNA; FIG. 8
# Description: (§2) Cell culture: Human non-small cell lung cancer A549 cells were grown in RPMI1640 medium supplemented with 10% fetal bovine serum (FBS), 100 units/ml of penicillin and 100 μg/ml of streptomycin, respectively.
# Transfection with siRNA: Cells (3×10^5 cells/well) were plated in 6-well plates in growth medium without antibiotics, and incubated overnight. Cells were then transfected with MUC1 siRNAs, siRNA #1, i.e., one against the target sequence SEQ ID NO: 63, i.e., […] with sense and antisense strands as shown in SEQ ID NO: 64 and SEQ ID NO: 65 respectively; and siRNA #2, i.e., one against the target sequence SEQ ID NO: 42, i.e., […] with sense and antisense strands as shown in SEQ ID NO: 43 and SEQ ID NO: 44 respectively, and one control siRNA directed towards the non-specific gene target […] using Oligofectamine reagent (Invitrogen) according to the manufacturer's instructions. After 24 hr of transfection, the medium was changed to complete medium containing antibiotics.
# (§3) Treatment of Cells with cisplatinum (CDDP): At 72 hr post transfection of siRNAs, 10 μM CDDP was added to the cells in fresh culture medium. After 48 hr of CDDP exposure cells were trypsinized and analyzed for MUC1 expression and apoptosis as described below.
# A549 cells [3] = experiment: Apoptosis assay (Annexin V-FITC/PI) in A549 cells; type: cell-based, human; conditions: FIG. 7
# Description: as §2
# Transfection with siRNA: Cells (3×10^5 cells/well) were plated in 6-well plates in growth medium without antibiotics, and incubated overnight. […]
# as §3
# Apoptosis assay.: A549 cells were initially stained for MUC1 expression using the DF3 monoclonal antibody (Kufe, U.S. Pat. No. 5,506,343, herein incorporated by reference). […] The amount of DF3 staining was then measured using a biotinylated goat anti-mouse secondary antibody (diluted 1:200 in staining buffer) and streptavidin-conjugated phycoerythrin (diluted 1:50 in staining buffer). After fluorescent staining for MUC1 expression, apoptosis was determined by staining cells with Annexin V-FITC and propidium iodide (PI). […] Using a flow cytometer, (EPICS XL-MCL, Coulter Corp), the amount of MUC1 expressing cells were determined using the FL2 detector, annexin V-FITC staining was measured in the FL1 detector and propidium iodide staining was measured in the FL3 detector. […]
# MUC1 DF3 antigen = experiment: DF3 antigen levels by immunoblot after NM-3; type: cell-based, human
# Description: MCF-7 cells were treated with NM-3 (2-(8-hydroxy-6-methoxy-1-oxo-1 H-2-benzopyran-3-yl)propionic acid) at 100-400 μg/ml for 48 hr. DF3 antigen levels were visualized by immunoblot analysis with DF3 MAb (Kufe, U.S. Pat. No. 5,506,343, herein incorporated by reference).
# A decrease in the intracellular levels of DF3 antigen of NM-3 treated cells relative to non-treated cells was observed. […] To determine whether NM-3 impaired the extracellular localization of the MUC1 DF3 antigen, the antigen levels in cell culture medium supernatants and on MCF-7 cells after NM-3 treatment were investigated. The levels of DF3 antigen were reduced in both localizations.
# [4] = system: epidermal growth factor receptor (EGF-R); experiment: EGF-R expression after NM-3; type: cell-based, human; conditions: MCF-7, ZR-75-1 and BT-20 cell lines
# Description: To determine whether NM-3 inhibits the expression of cellular surface proteins as well, the level of epidermal growth factor receptor (EGF-R) expression after NM-3 treatment was tested on MCF-7, ZR-75-1 and BT-20 cell lines.
# MUC1 [5] = experiment: MUC1 induction by oxidative and genotoxic stress (immunoblot)
# Description: To determine whether MUC1 is induced in response to oxidative stress, MCF-7 cells were treated with hydrogen peroxide. Cell lysates were analyzed by immunoblotting with anti-DF3/MUC1 antibody. Lysates were prepared by suspending MCF-7 cells in lysis buffer (50 mM Tris, pH 7.6, 150 mM NaCl, 1 mM PMSF, 3 mM NaF, 1 mM sodium vandate, 1 mM DTT with protease inhibitors and either 1% NP-40 or 1% Brij-96) for 30 min. on ice. Lysates were cleared by centifugation and equal amounts of proteins were resolved by SDS-PAGE. Proteins were then transferred to nitrocellulose filters, blocked by incubation in 5% non-fat dry milk in PBS with 0.05% Tween-20 and probed with anti-MUC1 antibody (Pandey et al., 1995). Anti-actin was used as a control.
# Similar studies were performed with genotoxic agents.
# HeLa cells = conditions: HeLa/MUC1 vs HeLa/V, FIG. 4
# Description: DNA content was assessed by staining ethanol-fixed cells with propidium iodide and monitoring by FACScan (Beckton Dickerson). Numbers of cells with sub-G1 DNA content were determined with a MODFIT LT program, (Verity Software House, Topsham, Me.) (Yuan et al., 1997). The cells were analyzed for induction of sub-G1 DNA by flow cytometry as a marker of apoptosis.
# The induction of apoptosis in cells treated with 0.01 mM taxol for 20 hr was assessed by measuring sub-G1 DNA content of HeLa cells expressing empty vector or MUC1.
# MUC1 [6] = system: MUC1
# Description: Cell Culture: Human MCF-7 breast carcinoma and HeLa cervical carcinoma cella (obtained form the ATCC, Manassas, Va.) were grown in DMEM (high glucose; Mediatech, Cellgrow) supplemented with 10% heat-inactivated fetal calf serum (FCS) and 2 mM L-glutamate.
# Immunoblot analysis: Cells were lysed in ice-cold lysis buffer (20 mM Tris-HCl, pH 8.0, 150 mM NaCl, 1% Triton-X-100, 1 mM phenylsulfonyl fluoride, 1 mM DTT, 10 μgm/ml aprotinin) for 30 min. Lysates were cleared by centrifugation for 20 min. at 4° C. as described (Yin et al, 2001). Proteins were separated by SDS-PAGE, transferred to nitrocellulose and probed with anti-DF3/MUC1 (Kufe, U.S. Pat. No. 5,506,34) or anti-β-actin (Sigma). The antigen-antibody complexes were visualized by enhanced chemiluminescence (ECL; Amersham Life Sciences).
# CDDO downregulates MUC1 expression: MUC1-positive cells were treated with CDDO at concentrations of 1, 3 and 5 μM.
# intracellular ROS = conditions: NAC pretreatment
# Description: Measurement of ROS levels: Cells were incubated with 10 mM DCF-DA Sigma) for 15 min. at 37° C. to assess ROS-mediated oxidation of the fluorescent compound DCF (LeBel et al., 1992). Fluorescence of oxidized DCF was measured at an excitation wavelength of 480 nm and an emission wavelength of 525 nm using a flow cytometer (Beckton Dickerson, Lincoln Park, N.J.).
# As a control, cells were incubated with NAC, a scavenger of ROS.
molecule,measurement,setting,value
"siRNA #1: double stranded anti-MUC1 siRNA, target SEQ ID NO: 63, sense SEQ ID NO: 64, antisense SEQ ID NO: 65 (sense GGGGGUUUUCUGGGCCUCUTT; antisense AGAGGCCCAGAAAACCCCCTT; sugars from the 5' end r19 d2, backbone not given here)",MUC1 expression at the protein level (immunoblot),"MUC1 [1]; A549 cells, FIG. 5",downregulate MUC1 expression
same,MUC1 expression at the protein level (immunoblot),"MUC1 [1]; MCF-7 cells, FIG. 5, FIG. 6",downregulate MUC1 expression
same,MUC1 expression at the RNA level (RT-PCR),MUC1 RNA; A549 cells,downregulate MUC1 expression
same,MUC1 expression at the RNA level (RT-PCR),MUC1 RNA; MCF-7 cells,downregulate MUC1 expression
same,proliferation of A549 cells,A549 cells [2],decreased the proliferation
"siRNA #2: double stranded anti-MUC1 siRNA, target SEQ ID NO: 42, sense SEQ ID NO: 43, antisense SEQ ID NO: 44 (sense GGUACCAUCAAUGUCCACGTT; antisense CGUGGACAUUGAUGGUACCTT; sugars from the 5' end r19 d2, backbone not given here)",MUC1 expression at the protein level (immunoblot),"MUC1 [1]; A549 cells, FIG. 5",downregulate MUC1 expression
same,MUC1 expression at the protein level (immunoblot),"MUC1 [1]; MCF-7 cells, FIG. 5, FIG. 6",downregulate MUC1 expression
same,MUC1 expression at the RNA level (RT-PCR),MUC1 RNA; A549 cells,downregulate MUC1 expression
same,MUC1 expression at the RNA level (RT-PCR),MUC1 RNA; MCF-7 cells,downregulate MUC1 expression
same,percentage of apoptotic cells,"A549 cells [3]; A549 cells transfected with siRNA, relative to controls",increase
same,"percentage of apoptotic cells, combination","A549 cells [3]; A549 cells, siRNA 72 hr then 10 μM CDDP 48 hr",more than additively enhances
same,proliferation of A549 cells,A549 cells [2],decreased the proliferation
"COc1cc(O)c2c(=O)oc(C(C)C(=O)O)cc2c1 (centres unmarked) [NM-3, 2-(8-hydroxy-6-methoxy-1-oxo-1 H-2-benzopyran-3-yl)propionic acid]",levels of DF3 antigen in cell culture medium supernatants and on MCF-7 cells,MUC1 DF3 antigen; MCF-7 cells after NM-3 treatment,reduced
same,intracellular levels of DF3 antigen,"MUC1 DF3 antigen; MCF-7 cells, 100-400 μg/ml for 48 hr, relative to non-treated cells",decrease
same,EGF-R expression,[4],no detectable changes
CC(=O)O[C@H]1C(=O)[C@@]2(C)[C@H]([C@H](OC(=O)c3ccccc3)[C@]3(O)C[C@H](OC(=O)[C@H](O)[C@@H](NC(=O)c4ccccc4)c4ccccc4)C(C)=C1C3(C)C)[C@]1(OC(C)=O)CO[C@@H]1C[C@@H]2O [taxol],MUC1 induction by diverse cytotoxic agents,"MUC1 [5]; available evidence, cells not given",induced
same,"induced apoptosis (sub-G1 DNA), effect of MUC1",HeLa cells; 0.01 mM taxol for 20 hr,inhibited by MUC1 expression
OO [hydrogen peroxide],MUC1 expression (immunoblot),MUC1 [5]; MCF-7 cells,rapidly and transiently induced
same,"apoptotic response (sub-G1 DNA), effect of MUC1",HeLa cells; 1 mM hydrogen peroxide for 1 hr,MUC1 inhibits the apoptotic response
same,MUC1 expression,MUC1 [6]; 0.1 mM H2O2,downregulation of MUC1
"CC(=O)N[C@@H](CS)C(=O)O [NAC, N-acetylcysteine]","CDDO-, CDDO-Me-, CDDO-Im- and CDDO-Pr-Im-induced decreases in MUC1",MUC1 [6]; cells treated with antioxidant,blocked
same,H2O2-induced downregulation of MUC1,MUC1 [6]; with NAC,reversed
same,CDDO-induced ROS production,intracellular ROS,abrogation
